Article PMC7407491, “The Addition of a Synthetic LPS-Targeting Domain Improves Serum Stability While Maintaining Antimicrobial, Antibiofilm, and Cell Stimulating Properties of an Antimicrobial Peptide” (Biomolecules, 2020)
In brackets after ≈: the same amount, converted by molar mass. Like-named read-outs stand apart in the source and are kept apart here.

Assays:
Assay in all cases: Antibiogram of clinical isolate
Type in all cases: cell-based
Design in all cases: key to Interpretation: R represents “resistant”; I represents “intermediate”; S represents “sensitive”
Escherichia coli = settings: multi-drug resistant veterinary clinical isolate
Description: (§1) Veterinary clinical isolates, including Salmonella typhimurium, multi-drug resistant Escherichia coli, methicillin-resistant Staphylococcus aureus (MRSA), and methicillin-resistant Staphylococcus pseudointermedius (MRSP), were kindly provided by Dr. H. Cai (Department of Pathobiology, University of Guelph, ON, Canada). An antibiogram for these strains is available in the supplementary text (Table S1). Gram-negative strains were cultured in Luria−Bertani (LB) broth. Gram-positive strains were cultured in Tryptic soy broth (TSB). Both cultures were grown under aerobic conditions at 37 °C.
(§2) 1 Where R represents “resistant”, I represents “intermediate” and S represents “sensitive”.
(§3) 2 MIC represents the minimal inhibitory concentration of the antibiotic in mcg/mL.
(§4) 3 mm represents the diameter zone of inhibition against antibiotic disc.

[1] = tested on: Methicillin Resistant Staphylococcus aureus; settings: veterinary clinical isolate
Description: as §1, §2, §3, §4

[2] = tested on: Methicillin Resistant Staphylococcus pseudointermedius; settings: veterinary clinical isolate
Description: as §1, §2, §3, §4

[3] = Escherichia coli, read-out: MIC
[4] = Staphylococcus aureus, read-out: MIC

In the case of `CC(=O)OCC1=C(C(=O)O)N2C(=O)[C@@H](NC(=O)Cc3cccs3)[C@H]2SC1` [Cephalothin], the MIC (Escherichia coli; [3]) is reported as greater than 101 µg/mL, the Interpretation (Escherichia coli) is reported as “R” and the “diameter zone of inhibition against antibiotic disc” value (from here on “diameter zone of inhibition”) (Escherichia coli) is reported as 6 mm. The MIC [1, 4] was 2.2 µg/mL (≈ 5.55 µM), the Interpretation [1] was “R” and the “diameter zone of inhibition” value [1] was 25 mm. The MIC ([2]; Staphylococcus, read-out: MIC) was 1.4 µg/mL (≈ 3.53 µM), the Interpretation [2] was “R” and the “diameter zone of inhibition” value [2] was 27 mm.
In the case of `CCN1CCN(c2cc3c(cc2F)c(=O)c(C(=O)O)cn3C2CC2)CC1` [Enrofloxacin], the MIC (Escherichia coli; [3]) is reported as greater than 18 µg/mL, the Interpretation (Escherichia coli) is reported as “R” and the “diameter zone of inhibition” value (Escherichia coli) is reported as 7 mm. For the same molecule, the MIC [1, 4] was no more than 0.099 µg/mL, the Interpretation [1] was “S” and the “diameter zone of inhibition” value [1] was 29 mm. The MIC ([2]; Staphylococcus, read-out: MIC) was greater than 19 µg/mL, the Interpretation [2] was “R” and the “diameter zone of inhibition” value [2] was 6 mm.
In the case of `CNC(C)C1CCC(N)C(OC2C(N)CC(N)C(OC3OCC(C)(O)C(NC)C3O)C2O)O1` (stereo not drawn) [Gentamicin], the MIC (Escherichia coli; [3]) is reported as 2.6 µg/mL (≈ 5.44 µM), the Interpretation (Escherichia coli) is reported as “S” and the “diameter zone of inhibition” value (Escherichia coli) is reported as 18 mm. The MIC [1, 4] was 31 µg/mL (≈ 64.9 µM), the Interpretation [1] was “R” and the “diameter zone of inhibition” value [1] was 9 mm. For the same molecule, the MIC ([2]; Staphylococcus, read-out: MIC) was 7.9 µg/mL (≈ 16.5 µM), the Interpretation [2] was “I” and the “diameter zone of inhibition” value [2] was 14 mm.
For `CN1CCN(c2c(F)cc3c(=O)c(C(=O)O)cn4c3c2OCN4C)CC1` [Marbofloxacin], the Interpretation (Escherichia coli) was “R”, the “diameter zone of inhibition” value (Escherichia coli) was 6 mm and the Interpretation [1] was “S”. The “diameter zone of inhibition” value [1] was 27 mm, the Interpretation [2] was “R” and the “diameter zone of inhibition” value [2] was 6 mm.
With `C[C@@H]1CN(c2c(F)c(F)c3c(=O)c(C(=O)O)cn(C4CC4)c3c2F)C[C@H](C)N1` [Orbifloxacin] the MIC (Escherichia coli; [3]) was greater than 40 µg/mL, the Interpretation (Escherichia coli) was “R” and the “diameter zone of inhibition” value (Escherichia coli) was 6 mm. For the same molecule, the MIC [1, 4] was 0.25 µg/mL (≈ 0.632 µM), the Interpretation [1] was “S” and the “diameter zone of inhibition” value [1] was 27 mm. For the same molecule, the MIC ([2]; Staphylococcus, read-out: MIC) was greater than 40 µg/mL, the Interpretation [2] was “R” and the “diameter zone of inhibition” value [2] was 6 mm.
With `CN(C)[C@@H]1C(O)=C(C(N)=O)C(=O)[C@@]2(O)C(O)=C3C(=O)c4c(O)cccc4[C@@](C)(O)[C@H]3C[C@@H]12` [Tetracycline] the MIC (Escherichia coli; [3]) was 16 µg/mL (≈ 36 µM), the Interpretation (Escherichia coli) was “R” and the “diameter zone of inhibition” value (Escherichia coli) was 13 mm. For the same molecule, the MIC [1, 4] was 0.42 µg/mL (≈ 0.945 µM), the Interpretation [1] was “S” and the “diameter zone of inhibition” value [1] was 31 mm. For the same molecule, the MIC ([2]; Staphylococcus, read-out: MIC) was greater than 33 µg/mL, the Interpretation [2] was “R” and the “diameter zone of inhibition” value [2] was 8 mm.
Amoxicillin-clavulanate was tested, and the Interpretation (Escherichia coli) was “R”, the MIC (Escherichia coli) was greater than 64 µg/mL and the “diameter zone of inhibition” value (Escherichia coli) was 8 mm. The Interpretation [1] was “R”, the MIC [1] was 14 µg/mL and the “diameter zone of inhibition” value [1] was 16 mm. For the same molecule, the Interpretation [2] was “R”, the MIC [2] was 2.9 µg/mL and the “diameter zone of inhibition” value [2] was 24 mm.
In the case of Trimethoprim-sulfamethoxazole, the Interpretation (Escherichia coli) is reported as “R”, the MIC (Escherichia coli) is reported as greater than 10 µg/mL and the “diameter zone of inhibition” value (Escherichia coli) is reported as 6 mm. For the same molecule, the Interpretation [1] was “S”, the MIC [1] was “<= 4.1 mcg/mL” and the “diameter zone of inhibition” value [1] was 31 mm. The Interpretation [2] was “R”, the MIC [2] was greater than 10 µg/mL and the “diameter zone of inhibition” value [2] was 6 mm.
